One may read the IC50 as the concentration at which inhibition is half-maximal. Lower therefore signals greater potency.

This test concerns the target T1, Phospholipase A2, membrane associated (Homo sapiens, UniProt P14555).
T1 sequence (P14555 whole entry): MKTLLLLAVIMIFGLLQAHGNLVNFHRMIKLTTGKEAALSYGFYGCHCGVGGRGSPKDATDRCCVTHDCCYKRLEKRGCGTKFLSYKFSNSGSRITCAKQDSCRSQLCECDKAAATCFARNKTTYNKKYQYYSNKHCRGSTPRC
As to the kind of experiment: Inhibition of human nonpancreatic secretory phospholipase A2.
Consider `COc1ccc2c(c1)c(CC(N)=O)c(C)n2Cc1ccccc1`, for which 540 nM corresponded to half-maximal inhibition (IC50).
In the case of `COc1ccc2c(c1)c(CC(N)=O)c(C)n2Cc1ccccc1OCCCCCCCOc1ccccc1Cn1c(C)c(CC(N)=O)c2cc(OC)ccc21`, half-maximal inhibition (IC50) was put at 52 nM.
As for `COc1ccc2c(c1)c(CC(N)=O)c(C)n2Cc1ccccc1OCCCCCOc1ccccc1Cn1c(C)c(CC(N)=O)c2cc(OC)ccc21`, half-maximal inhibition (IC50) required 24 nM.
Regarding `COc1ccc2c(c1)c(CC(N)=O)c(C)n2Cc1ccc(OCCCCCOc2ccc(Cn3c(C)c(CC(N)=O)c4cc(OC)ccc43)cc2)cc1`, the IC50 was 86 nM.
To `COc1ccc2c(c1)c(CC(N)=O)c(C)n2Cc1ccccc1OCCCCOc1ccccc1Cn1c(C)c(CC(N)=O)c2cc(OC)ccc21` belongs 60 nM; to `COc1ccc2c(c1)c(CC(N)=O)c(C)n2Cc1ccccc1OCCCCCCCCCOc1ccccc1Cn1c(C)c(CC(N)=O)c2cc(OC)ccc21`, 49 nM; to `COc1ccc2c(c1)c(CC(N)=O)c(C)n2Cc1ccccc1OCCCCCCCCOc1ccccc1Cn1c(C)c(CC(N)=O)c2cc(OC)ccc21`, 58 nM.
To `COc1ccc2c(c1)c(CC(N)=O)c(C)n2Cc1cccc(OCCCCCOc2cccc(Cn3c(C)c(CC(N)=O)c4cc(OC)ccc43)c2)c1` belongs 76 nM.
To `COc1ccc2c(c1)c(CC(N)=O)c(C)n2Cc1ccccc1OCCCOc1ccccc1Cn1c(C)c(CC(N)=O)c2cc(OC)ccc21` belongs 48 nM.
`COc1ccc2c(c1)c(CC(N)=O)c(C)n2Cc1ccccc1OCCCCCCOc1ccccc1Cn1c(C)c(CC(N)=O)c2cc(OC)ccc21` came in with an IC50 of 39 nM.
The result for `CCCCCOc1ccccc1Cn1c(C)c(CC(N)=O)c2cc(OC)ccc21` reads 120 nM.

Values taken from ChEMBL document CHEMBL1150777, “Chemically induced dimerization of human nonpancreatic secretory phospholipase A2 by bis-indole derivatives” (J Med Chem, 2008).
